Assay [1] has as its target T1, Dual specificity protein kinase TTK (Homo sapiens) (UniProt P33981).
T1 sequence (whole entry): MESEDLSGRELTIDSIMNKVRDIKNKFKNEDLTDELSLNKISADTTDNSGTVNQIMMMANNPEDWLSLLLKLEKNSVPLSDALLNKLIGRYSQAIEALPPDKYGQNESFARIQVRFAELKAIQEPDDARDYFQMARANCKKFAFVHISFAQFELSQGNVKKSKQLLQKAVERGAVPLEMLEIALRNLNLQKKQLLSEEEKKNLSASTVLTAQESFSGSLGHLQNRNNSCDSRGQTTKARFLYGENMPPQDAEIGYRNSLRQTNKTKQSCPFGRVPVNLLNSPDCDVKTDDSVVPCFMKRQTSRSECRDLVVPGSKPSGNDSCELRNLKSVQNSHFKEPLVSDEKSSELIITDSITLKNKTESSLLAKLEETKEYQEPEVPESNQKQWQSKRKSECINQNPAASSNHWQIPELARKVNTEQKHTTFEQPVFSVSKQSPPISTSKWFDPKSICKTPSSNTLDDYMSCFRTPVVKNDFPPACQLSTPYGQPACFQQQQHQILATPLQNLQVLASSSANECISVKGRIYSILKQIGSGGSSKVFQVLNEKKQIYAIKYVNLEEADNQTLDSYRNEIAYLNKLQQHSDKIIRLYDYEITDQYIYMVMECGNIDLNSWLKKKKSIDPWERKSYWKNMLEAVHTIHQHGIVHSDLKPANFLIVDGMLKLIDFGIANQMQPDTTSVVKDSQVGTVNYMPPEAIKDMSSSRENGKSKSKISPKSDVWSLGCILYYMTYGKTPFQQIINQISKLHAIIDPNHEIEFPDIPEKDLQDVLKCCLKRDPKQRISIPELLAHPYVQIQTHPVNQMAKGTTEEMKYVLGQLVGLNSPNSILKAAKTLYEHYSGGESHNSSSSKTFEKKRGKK
Briefly: Inhibition of T7 bacteriophage fused human TTK at 10 uM by KINOMEscan analysis relative to control.

Assay [2] addresses Tyrosine-protein kinase Tec (Homo sapiens) (UniProt P42680). The experiment in a line: Inhibition of T7 bacteriophage fused human TEC at 10 uM by KINOMEscan analysis relative to control.
In assay [3] the target is STE20-like serine/threonine-protein kinase (Homo sapiens) (UniProt Q9H2G2). The experiment in a line: Inhibition of T7 bacteriophage fused human SLK at 10 uM by KINOMEscan analysis relative to control.
Chain of STE20-like serine/threonine-protein kinase (Homo sapiens) (Q9H2G2 whole entry, looked up, the tested form may be a part): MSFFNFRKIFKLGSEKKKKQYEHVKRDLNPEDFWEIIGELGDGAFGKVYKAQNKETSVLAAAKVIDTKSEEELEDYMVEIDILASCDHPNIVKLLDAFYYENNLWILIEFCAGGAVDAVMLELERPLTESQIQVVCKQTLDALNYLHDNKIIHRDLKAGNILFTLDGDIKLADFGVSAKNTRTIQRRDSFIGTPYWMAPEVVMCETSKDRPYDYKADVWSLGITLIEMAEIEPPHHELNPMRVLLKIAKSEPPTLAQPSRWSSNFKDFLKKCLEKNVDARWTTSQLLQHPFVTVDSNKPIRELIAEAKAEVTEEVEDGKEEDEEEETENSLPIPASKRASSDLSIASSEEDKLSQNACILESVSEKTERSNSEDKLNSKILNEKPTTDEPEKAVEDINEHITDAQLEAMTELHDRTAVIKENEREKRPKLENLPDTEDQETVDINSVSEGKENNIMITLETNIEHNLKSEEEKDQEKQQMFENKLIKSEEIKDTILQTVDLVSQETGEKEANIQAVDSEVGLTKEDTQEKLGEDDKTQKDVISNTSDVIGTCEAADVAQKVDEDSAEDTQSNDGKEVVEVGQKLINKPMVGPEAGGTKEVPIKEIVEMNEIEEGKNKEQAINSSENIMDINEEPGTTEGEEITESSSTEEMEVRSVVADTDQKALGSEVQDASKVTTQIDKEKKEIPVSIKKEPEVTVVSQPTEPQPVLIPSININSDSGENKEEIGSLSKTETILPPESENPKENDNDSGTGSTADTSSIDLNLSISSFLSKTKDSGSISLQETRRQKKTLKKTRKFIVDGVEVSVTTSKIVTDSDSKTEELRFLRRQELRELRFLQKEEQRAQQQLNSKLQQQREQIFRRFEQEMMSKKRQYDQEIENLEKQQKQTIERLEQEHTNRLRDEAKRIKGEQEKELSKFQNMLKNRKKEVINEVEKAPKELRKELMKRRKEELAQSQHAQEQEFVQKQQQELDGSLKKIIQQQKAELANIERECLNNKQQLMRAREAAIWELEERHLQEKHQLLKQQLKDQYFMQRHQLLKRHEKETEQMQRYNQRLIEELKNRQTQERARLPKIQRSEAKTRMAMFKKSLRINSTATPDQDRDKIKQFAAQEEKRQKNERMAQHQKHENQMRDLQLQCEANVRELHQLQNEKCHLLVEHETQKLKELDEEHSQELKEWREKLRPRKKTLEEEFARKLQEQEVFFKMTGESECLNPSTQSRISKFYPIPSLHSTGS
Assay [4] addresses Peripheral plasma membrane protein CASK (Homo sapiens) (UniProt O14936). Briefly: Inhibition of T7 bacteriophage fused human CASK at 10 uM by KINOMEscan analysis relative to control.
In assay [5] the target is Ribosomal protein S6 kinase alpha-2 (Homo sapiens) (UniProt Q15349). Briefly: Inhibition of T7 bacteriophage fused human C-terminal RSK3 Kinase domain-2 at 10 uM by KINOMEscan analysis relative to control.
Chain of Ribosomal protein S6 kinase alpha-2 (Homo sapiens) (Q15349 whole entry, the tested form may be a part): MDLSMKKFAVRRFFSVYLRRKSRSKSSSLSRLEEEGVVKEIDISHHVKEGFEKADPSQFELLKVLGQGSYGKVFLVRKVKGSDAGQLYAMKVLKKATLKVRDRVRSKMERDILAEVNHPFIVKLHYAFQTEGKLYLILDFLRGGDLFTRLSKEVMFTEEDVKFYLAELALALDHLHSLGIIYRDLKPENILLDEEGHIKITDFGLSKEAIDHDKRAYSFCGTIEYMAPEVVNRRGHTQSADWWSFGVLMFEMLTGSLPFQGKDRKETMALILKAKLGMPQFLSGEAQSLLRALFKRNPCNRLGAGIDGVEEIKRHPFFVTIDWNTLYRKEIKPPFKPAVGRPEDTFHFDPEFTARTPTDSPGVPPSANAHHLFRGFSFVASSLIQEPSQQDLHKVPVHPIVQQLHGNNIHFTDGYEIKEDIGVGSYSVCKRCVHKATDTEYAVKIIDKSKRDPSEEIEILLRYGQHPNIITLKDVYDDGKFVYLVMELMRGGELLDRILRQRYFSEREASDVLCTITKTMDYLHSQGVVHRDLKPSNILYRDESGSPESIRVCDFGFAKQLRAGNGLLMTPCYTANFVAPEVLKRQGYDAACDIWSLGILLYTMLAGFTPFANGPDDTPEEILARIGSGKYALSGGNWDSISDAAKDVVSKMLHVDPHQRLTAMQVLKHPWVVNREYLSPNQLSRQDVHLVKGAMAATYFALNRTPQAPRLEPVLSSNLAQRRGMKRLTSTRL
The target in assay [6] is Ribosomal protein S6 kinase alpha-6 (Homo sapiens) (UniProt Q9UK32). The experiment in a line: Inhibition of T7 bacteriophage fused human C-terminal RSK4 Kinase domain-2 at 10 uM by KINOMEscan analysis relative to control.
Chain of Ribosomal protein S6 kinase alpha-6 (Homo sapiens) (Q9UK32 whole entry, the tested form may be a part): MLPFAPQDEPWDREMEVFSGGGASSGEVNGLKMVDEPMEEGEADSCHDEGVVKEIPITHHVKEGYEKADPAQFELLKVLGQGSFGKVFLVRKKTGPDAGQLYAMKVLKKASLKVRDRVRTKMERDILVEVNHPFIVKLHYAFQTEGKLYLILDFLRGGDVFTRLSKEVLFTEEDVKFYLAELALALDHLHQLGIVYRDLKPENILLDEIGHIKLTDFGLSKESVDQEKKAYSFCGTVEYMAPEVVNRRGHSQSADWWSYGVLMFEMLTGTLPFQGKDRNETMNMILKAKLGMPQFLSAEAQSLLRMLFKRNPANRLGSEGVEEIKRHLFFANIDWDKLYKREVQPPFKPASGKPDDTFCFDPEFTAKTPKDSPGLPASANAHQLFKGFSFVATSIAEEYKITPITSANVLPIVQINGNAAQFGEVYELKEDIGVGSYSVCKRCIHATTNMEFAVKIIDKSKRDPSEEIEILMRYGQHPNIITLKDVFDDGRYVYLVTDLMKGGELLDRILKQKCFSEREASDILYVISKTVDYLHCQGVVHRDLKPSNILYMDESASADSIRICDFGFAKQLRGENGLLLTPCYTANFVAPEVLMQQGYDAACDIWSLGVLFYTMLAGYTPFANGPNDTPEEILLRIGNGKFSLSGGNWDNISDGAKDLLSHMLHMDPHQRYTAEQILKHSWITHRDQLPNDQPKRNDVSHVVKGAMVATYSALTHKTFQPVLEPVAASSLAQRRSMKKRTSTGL
The target of assay [7] is Mitogen-activated protein kinase 7 (Homo sapiens, UniProt Q13164). Briefly: Inhibition of GST-tagged ERK5 (unknown origin) expressed in baculovirus expression system incubated for 90 mins in presence of ATP by PKLight ATP Detection Reagent based analysis.
Assay [8] has as its target Dual specificity mitogen-activated protein kinase kinase 5 (Homo sapiens, UniProt Q13163). Briefly: Inhibition of GST-tagged MEK5 (unknown origin) expressed in baculovirus expression system incubated for 90 mins in presence of ATP by PKLight ATP Detection Reagent based analysis.

Chain of Dual specificity mitogen-activated protein kinase kinase 5 (Q13163 whole entry): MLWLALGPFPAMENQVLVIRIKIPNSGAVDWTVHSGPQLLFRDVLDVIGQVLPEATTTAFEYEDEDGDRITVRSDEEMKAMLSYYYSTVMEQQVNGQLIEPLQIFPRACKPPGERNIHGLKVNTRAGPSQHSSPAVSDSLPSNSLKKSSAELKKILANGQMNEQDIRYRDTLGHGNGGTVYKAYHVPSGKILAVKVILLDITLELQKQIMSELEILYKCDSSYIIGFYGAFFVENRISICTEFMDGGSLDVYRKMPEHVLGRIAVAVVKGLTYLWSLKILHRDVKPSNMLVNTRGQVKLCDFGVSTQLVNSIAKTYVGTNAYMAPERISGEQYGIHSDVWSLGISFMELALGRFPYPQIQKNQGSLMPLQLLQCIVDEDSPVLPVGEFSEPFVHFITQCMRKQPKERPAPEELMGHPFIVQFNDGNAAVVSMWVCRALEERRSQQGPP
Chain of Tyrosine-protein kinase Tec (Homo sapiens) (P42680 whole entry, looked up, the tested form may be a part): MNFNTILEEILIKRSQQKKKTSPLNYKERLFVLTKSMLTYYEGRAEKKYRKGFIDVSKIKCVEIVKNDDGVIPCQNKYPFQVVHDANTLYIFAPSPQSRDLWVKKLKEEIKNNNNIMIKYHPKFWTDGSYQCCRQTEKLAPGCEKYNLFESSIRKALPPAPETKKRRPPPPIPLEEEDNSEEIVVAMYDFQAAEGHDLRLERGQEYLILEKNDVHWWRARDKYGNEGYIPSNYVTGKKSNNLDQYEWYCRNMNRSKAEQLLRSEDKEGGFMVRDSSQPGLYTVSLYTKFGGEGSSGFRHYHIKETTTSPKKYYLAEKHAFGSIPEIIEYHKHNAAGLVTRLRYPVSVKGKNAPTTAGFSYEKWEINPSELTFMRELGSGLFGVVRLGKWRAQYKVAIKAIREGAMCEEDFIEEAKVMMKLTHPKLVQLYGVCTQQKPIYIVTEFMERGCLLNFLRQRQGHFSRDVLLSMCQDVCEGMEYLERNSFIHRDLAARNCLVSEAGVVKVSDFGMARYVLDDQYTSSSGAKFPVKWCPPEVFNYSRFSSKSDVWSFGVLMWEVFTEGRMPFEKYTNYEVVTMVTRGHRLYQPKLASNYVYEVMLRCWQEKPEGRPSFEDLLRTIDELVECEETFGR
Chain of Peripheral plasma membrane protein CASK (Homo sapiens) (O14936 whole entry, looked up, the tested form may be a part): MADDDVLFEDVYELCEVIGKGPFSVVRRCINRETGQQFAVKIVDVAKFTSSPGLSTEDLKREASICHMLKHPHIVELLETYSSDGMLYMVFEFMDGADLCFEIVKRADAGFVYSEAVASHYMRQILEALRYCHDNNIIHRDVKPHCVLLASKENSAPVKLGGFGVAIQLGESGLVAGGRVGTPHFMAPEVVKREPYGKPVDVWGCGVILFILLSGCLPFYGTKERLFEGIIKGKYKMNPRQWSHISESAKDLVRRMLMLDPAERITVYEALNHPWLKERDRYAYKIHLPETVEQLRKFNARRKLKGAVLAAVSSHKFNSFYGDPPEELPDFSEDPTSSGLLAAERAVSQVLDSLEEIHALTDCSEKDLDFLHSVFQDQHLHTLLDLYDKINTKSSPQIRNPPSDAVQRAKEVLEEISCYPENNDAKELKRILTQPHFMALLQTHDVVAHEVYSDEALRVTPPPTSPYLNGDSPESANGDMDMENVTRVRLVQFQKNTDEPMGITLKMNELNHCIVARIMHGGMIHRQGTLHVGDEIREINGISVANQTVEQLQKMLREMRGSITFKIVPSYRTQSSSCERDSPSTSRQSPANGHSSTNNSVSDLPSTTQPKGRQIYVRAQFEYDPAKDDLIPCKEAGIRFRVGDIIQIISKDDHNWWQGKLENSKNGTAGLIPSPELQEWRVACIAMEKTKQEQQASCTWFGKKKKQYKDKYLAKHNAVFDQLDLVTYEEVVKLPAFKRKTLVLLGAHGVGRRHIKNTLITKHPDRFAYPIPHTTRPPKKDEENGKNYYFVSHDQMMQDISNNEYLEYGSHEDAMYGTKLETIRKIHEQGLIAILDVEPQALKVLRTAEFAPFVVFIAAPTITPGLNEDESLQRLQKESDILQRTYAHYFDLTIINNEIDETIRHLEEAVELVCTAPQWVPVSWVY

A word on the inhibition: it is how much of the control response was suppressed. Read a low inhibition as a response near the control. For `COc1cc(C(=O)N2CCC(N3CCN(C)CC3)CC2)ccc1Nc1ncc2c(n1)N1CCc3cccc(c31)C(=O)N2C`, the inhibition worked out at 46% in assay [1]; 100% in assay [2]; 49% in assay [3]; 100% in assay [4]; 13% in assay [5]; 5.2% in assay [6].
As a reminder, the IC50 is the midpoint of a concentration-inhibition curve. As to `CN(C)Cc1cccc(N/C(=C2\C(=O)Nc3cc(C(N)=O)ccc32)c2ccccc2)c1`, the figures for the IC50 in assay [7] and in assay [8] were 810 nM and 4.3 nM, respectively.

(Values after ChEMBL document CHEMBL5678810.)
